Each compound was assayed against Lethal factor protease (Bacillus anthracis, UniProt P15917) (assay: biochemical).
Chain of Lethal factor protease (P15917 34-809 limits assumed): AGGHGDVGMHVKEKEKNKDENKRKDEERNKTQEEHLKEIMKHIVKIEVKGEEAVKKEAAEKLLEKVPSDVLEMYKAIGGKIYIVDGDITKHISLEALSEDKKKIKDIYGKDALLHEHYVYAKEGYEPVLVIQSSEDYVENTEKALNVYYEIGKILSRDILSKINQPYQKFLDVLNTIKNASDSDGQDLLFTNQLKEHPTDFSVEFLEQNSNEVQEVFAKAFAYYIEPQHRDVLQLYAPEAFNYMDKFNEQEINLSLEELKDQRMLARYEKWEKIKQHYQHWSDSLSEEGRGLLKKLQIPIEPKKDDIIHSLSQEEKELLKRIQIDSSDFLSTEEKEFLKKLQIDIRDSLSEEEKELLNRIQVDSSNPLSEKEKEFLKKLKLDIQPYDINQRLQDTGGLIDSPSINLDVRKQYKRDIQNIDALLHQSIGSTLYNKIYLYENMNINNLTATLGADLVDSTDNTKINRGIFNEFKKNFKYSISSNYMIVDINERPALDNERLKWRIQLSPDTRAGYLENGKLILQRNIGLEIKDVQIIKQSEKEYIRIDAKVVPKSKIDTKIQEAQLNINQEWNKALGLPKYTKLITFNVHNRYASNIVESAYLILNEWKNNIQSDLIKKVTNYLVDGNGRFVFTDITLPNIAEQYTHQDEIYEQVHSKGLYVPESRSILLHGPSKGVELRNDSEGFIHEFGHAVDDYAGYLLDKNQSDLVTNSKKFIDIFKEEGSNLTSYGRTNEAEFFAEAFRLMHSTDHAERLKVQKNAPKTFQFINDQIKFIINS

Row | Compound | Ki
1 | CCCCC(Nc1cc(F)cc(F)c1)C(=O)NO (stereo not shown) [Compound 167807, 2-(3,5-Difluoro-phenylamino)-hexanoic acid hydroxyamide] | 228000 nM
2 | CCCCC(Nc1cc(Br)cc(Br)c1)C(=O)NO (stereo not shown) [Compound 167843, 2-(3,5-Dibromo-phenylamino)-hexanoic acid hydroxyamide] | 52300 nM
3 | CCCCC(Nc1cc(C)cc(Br)c1)C(=O)NO (stereo not shown) [Compound 167844, 2-(3-Bromo-5-methyl-phenylamino)-hexanoic acid hydroxyamide] | 3500 nM
4 | Cc1cc(N[C@H](CCCCNC(=O)OC(C)(C)C)C(=O)NO)ccc1F [Compound 167926, (R)-[5-(4-Fluoro-3-methyl-phenylamino)-5-hydroxycarbamoyl-pentyl]-carbamic acid tert-butyl ester] | 2900 nM
5 | Cc1cccc(CN(CCCC[C@@H](Nc2cc(C)c(F)c(C)c2)C(=O)NO)Cc2cccc(C)c2)c1 [Compound 167932, (R)-6-[Bis-(3-methyl-benzyl)-amino]-2-(4-fluoro-3,5-dimethyl-phenylamino)-hexanoic acid hydroxyamide] | 1100 nM
6 | Cc1cc(CN(CCCC[C@@H](Nc2cc(C)c(F)c(C)c2)C(=O)NO)Cc2ccc(F)c(C)c2)ccc1F [Compound 167933, (R)-6-[Bis-(4-fluoro-3-methyl-benzyl)-amino]-2-(4-fluoro-3,5-dimethyl-phenylamino)-hexanoic acid hydroxyamide] | 1900 nM
7 | Cc1cc(N[C@H](CCCCNCc2ccc(F)cc2)C(=O)NO)ccc1F [Compound 167945, (R)-6-(4-Fluoro-benzylamino)-2-(4-fluoro-3-methyl-phenylamino)-hexanoic acid hydroxyamide] | 30 nM
8 | Cc1cc(CNCCCC[C@@H](Nc2ccc(F)c(C)c2)C(=O)NO)ccc1F [Compound 167946, (R)-6-(4-Fluoro-3-methyl-benzylamino)-2-(4-fluoro-3-methyl-phenylamino)-hexanoic acid hydroxyamide] | 60 nM
9 | Cc1cc(N[C@H](CCCCN)C(=O)NO)ccc1F [Compound 167949, (R)-6-Amino-2-(4-fluoro-3-methyl-phenylamino)-hexanoic acid hydroxyamide] | 200 nM
10 | Cc1cc(N[C@H](CCCCN(Cc2ccc(F)cc2)Cc2ccc(F)cc2)C(=O)NO)ccc1F [Compound 167963, (R)-6-[Bis-(4-fluoro-benzyl)-amino]-2-(4-fluoro-3-methyl-phenylamino)-hexanoic acid hydroxyamide] | 1100 nM
11 | Cc1cc(CN(CCCC[C@@H](Nc2ccc(F)c(C)c2)C(=O)NO)Cc2ccc(F)c(C)c2)ccc1F [Compound 167966, (R)-6-[Bis-(4-fluoro-3-methyl-benzyl)-amino]-2-(4-fluoro-3-methyl-phenylamino)-hexanoic acid hydroxyamide] | 6700 nM
12 | Cc1cc(N[C@H](CCCCNCc2cc(C)c(F)c(C)c2)C(=O)NO)ccc1F [Compound 167968, (R)-6-(4-Fluoro-3,5-dimethyl-benzylamino)-2-(4-fluoro-3-methyl-phenylamino)-hexanoic acid hydroxyamide] | 100 nM
13 | Cc1cc(N[C@H](CCCCNCc2cc(C)c(OCc3ccccc3)c(C)c2)C(=O)NO)ccc1F [Compound 167969, (R)-6-(4-Benzyloxy-3,5-dimethyl-benzylamino)-2-(4-fluoro-3-methyl-phenylamino)-hexanoic acid hydroxyamide] | 270 nM
14 | Cc1cc(N[C@H](CCCCN(Cc2cc(C)c(F)c(C)c2)Cc2cc(C)c(F)c(C)c2)C(=O)NO)ccc1F [Compound 167971, (R)-6-[Bis-(4-fluoro-3,5-dimethyl-benzyl)-amino]-2-(4-fluoro-3-methyl-phenylamino)-hexanoic acid hydroxyamide] | 5200 nM
15 | Cc1cc(N[C@H](CCCCNCc2ccc(F)nc2)C(=O)NO)ccc1F [Compound 167978, (R)-2-(4-Fluoro-3-methyl-phenylamino)-6-[(6-fluoro-pyridin-3-ylmethyl)-amino]-hexanoic acid hydroxyamide] | 260 nM
16 | Cc1cc(N[C@H](CCCCNCCc2ccccc2)C(=O)NO)ccc1F [Compound 167979, (R)-2-(4-Fluoro-3-methyl-phenylamino)-6-phenethylamino-hexanoic acid hydroxyamide] | 210 nM
17 | Cc1cc(N[C@H](CCCCNCc2ccccc2)C(=O)NO)ccc1F [Compound 167980, (R)-6-Benzylamino-2-(4-fluoro-3-methyl-phenylamino)-hexanoic acid hydroxyamide] | 150 nM
18 | Cc1cc(N[C@H](CCCCN(Cc2ccccc2)Cc2ccccc2)C(=O)NO)ccc1F [Compound 167982, (R)-6-Dibenzylamino-2-(4-fluoro-3-methyl-phenylamino)-hexanoic acid hydroxyamide] | 1800 nM
19 | Cc1cc(N[C@H](CCCCNCc2ccc(F)c(F)c2)C(=O)NO)ccc1F [Compound 167990, (R)-6-(3,4-Difluoro-benzylamino)-2-(4-fluoro-3-methyl-phenylamino)-hexanoic acid hydroxyamide] | 100 nM

Row | Compound | Ki
20 | Cc1cc(N[C@H](CCCCN(CC2CCCCC2)CC2CCCCC2)C(=O)NO)ccc1F [Compound 167991, (R)-6-(Bis-cyclohexylmethyl-amino)-2-(4-fluoro-3-methyl-phenylamino)-hexanoic acid hydroxyamide] | 16600 nM
21 | Cc1cc(N[C@H](CCCCNC(=O)CCc2ccccc2)C(=O)NO)ccc1F [Compound 167993, (R)-2-(4-Fluoro-3-methyl-phenylamino)-6-(3-phenyl-propionylamino)-hexanoic acid hydroxyamide] | 880 nM
22 | Cc1cc(N[C@H](CCCCNC(=O)CCCc2ccccc2)C(=O)NO)ccc1F [Compound 167994, (R)-2-(4-Fluoro-3-methyl-phenylamino)-6-(4-phenyl-butyrylamino)-hexanoic acid hydroxyamide] | 650 nM
23 | Cc1cc(N[C@H](CCCCNCc2ccc(Cl)s2)C(=O)NO)ccc1F [Compound 168008, (R)-6-[(5-Chloro-thiophen-2-ylmethyl)-amino]-2-(4-fluoro-3-methyl-phenylamino)-hexanoic acid hydroxyamide] | 60 nM
24 | Cc1cc(N[C@H](CCCCNC(C)c2ccc(F)cc2)C(=O)NO)ccc1F (stereo partly drawn) [Compound 168010, (R)-2-(4-Fluoro-3-methyl-phenylamino)-6-[1-(4-fluoro-phenyl)-ethylamino]-hexanoic acid hydroxyamide] | 70 nM
25 | Cc1cc(N[C@H](CCCCN(Cc2ccc(F)cc2)Cc2ccc(F)cc2)C(=O)NO)cc(C)c1F [Compound 168047, (R)-6-[Bis-(4-fluoro-benzyl)-amino]-2-(4-fluoro-3,5-dimethyl-phenylamino)-hexanoic acid hydroxyamide] | 790 nM
26 | Cc1cc(N[C@H](CCCCN(Cc2ccc(F)nc2)Cc2ccc(F)nc2)C(=O)NO)ccc1F [Compound 168080, (R)-6-[Bis-(6-fluoro-pyridin-3-ylmethyl)-amino]-2-(4-fluoro-3-methyl-phenylamino)-hexanoic acid hydroxyamide] | 10600 nM
27 | Cc1cc(COCCCC[C@@H](Nc2cc(C)c(F)c(C)c2)C(=O)NO)ccc1F [Compound 168116, (R)-2-(4-Fluoro-3,5-dimethyl-phenylamino)-6-(4-fluoro-3-methyl-benzyloxy)-hexanoic acid hydroxyamide] | 710 nM
28 | Cc1cc(CCCCCC[C@@H](Nc2cc(C)c(F)c(C)c2)C(=O)NO)ccc1F [Compound 168118, (R)-2-(4-Fluoro-3,5-dimethyl-phenylamino)-8-(4-fluoro-3-methyl-phenyl)-octanoic acid hydroxyamide] | 7200 nM
29 | Cc1cc(N[C@H](CCCCNCc2ccc3c(c2)OCO3)C(=O)NO)ccc1F [Compound 168145, (R)-6-[(Benzo[1,3]dioxol-5-ylmethyl)-amino]-2-(4-fluoro-3-methyl-phenylamino)-hexanoic acid hydroxyamide] | 170 nM
30 | Cc1cc(N[C@H](CCCCNCC2CCCCC2)C(=O)NO)ccc1F [Compound 168146, (R)-6-(Cyclohexylmethyl-amino)-2-(4-fluoro-3-methyl-phenylamino)-hexanoic acid hydroxyamide] | 250 nM
31 | Cc1cc(N[C@H](CCCCN(C)Cc2ccc(F)cc2)C(=O)NO)ccc1F [Compound 168147, (R)-6-[(4-Fluoro-benzyl)-methyl-amino]-2-(4-fluoro-3-methyl-phenylamino)-hexanoic acid hydroxyamide] | 190 nM
32 | Cc1cc(N[C@H](CCCCNCc2cccc(-c3ccccc3)c2)C(=O)NO)ccc1F [Compound 168165, (R)-6-[(Biphenyl-3-ylmethyl)-amino]-2-(4-fluoro-3-methyl-phenylamino)-hexanoic acid hydroxyamide] | 120 nM
33 | Cc1cc(N[C@H](CCCCNCc2cc3ccccc3o2)C(=O)NO)ccc1F [Compound 168166, (R)-6-[(Benzofuran-2-ylmethyl)-amino]-2-(4-fluoro-3-methyl-phenylamino)-hexanoic acid hydroxyamide] | 180 nM
34 | CCCC(CCC)CNCCCC[C@@H](Nc1ccc(F)c(C)c1)C(=O)NO [Compound 168167, (R)-2-(4-Fluoro-3-methyl-phenylamino)-6-(2-propyl-pentylamino)-hexanoic acid hydroxyamide] | 250 nM
35 | Cc1cc(N[C@H](CCCCNCc2cnccn2)C(=O)NO)ccc1F [Compound 168168, (R)-2-(4-Fluoro-3-methyl-phenylamino)-6-[(pyrazin-2-ylmethyl)-amino]-hexanoic acid hydroxyamide] | 630 nM
36 | Cc1cc(N[C@H](CCCCNCc2ccc(Cl)cc2)C(=O)NO)ccc1F [Compound 168181, (R)-6-(4-Chloro-benzylamino)-2-(4-fluoro-3-methyl-phenylamino)-hexanoic acid hydroxyamide] | 190 nM
37 | Cc1cc(N[C@H](CCCCNCc2ccc3sccc3c2)C(=O)NO)ccc1F [Compound 168182, (R)-6-[(Benzo[b]thiophen-5-ylmethyl)-amino]-2-(4-fluoro-3-methyl-phenylamino)-hexanoic acid hydroxyamide] | 150 nM

Reference: patent US8242174B2 (priority 2007, dated 2012)
